Data reported in US20230131899A1, “INHIBITORS OF MICROBIALLY INDUCED AMYLOID” (Axial Therapeutics, Inc., priority 2020, published 2023).
Like-named read-outs stand apart in the source and are kept apart here.

System: CsgA gene expression (csgBAC promoter-GFP reporter) in E. coli UTI89
Experiment: In vitro live cell fluorescent reporter assay of CsgA transcription (Reporter Assay)
Format: cell-based
Conditions: Escherichia coli
Procedure, shortened: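 Compounds at 0.14–100 μM (1% DMSO final) incubated 20 h at 27 °C in YESCA broth with UTI89 carrying a single-copy GFP reporter under the csgBAC intergenic promoter region, inoculum OD600 0.003. Fluorescence normalized to vehicle wells gave IC50 and 50%-of-vehicle concentration; OD600 reduction >10% flagged growth impact.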

[1] = read-out: Reporter Assay Abs IC50 (activity range), median Abs IC50 in the CsgA reporter assay, class symbol
[2] = read-out: Reporter Assay Abs IC50 (μM), median Abs IC50 in the CsgA reporter assay, N/A = maximum expression reduction is <50% of control
[3] = read-out: Reporter Assay Abs IC50, activity range, class symbol

| Compound | IC50 [1] [µM] | IC50 [2] [µM] | IC50 [3] [µM] |
| --- | --- | --- | --- |
| Nc1c(Cc2ccc(N)c3ccccc23)c(-c2cccc(C(F)(F)F)c2)c2n(c1=O)C(C(=O)O)CNS2(=O)=O (stereo not shown) [Compound 041] | > 10 | 20.2 | – |
| O=C(O)C1CN(CCCO)c2c(-c3cccc(C(F)(F)F)c3)c(Cc3cccc4ccccc34)c(Cl)c(=O)n21 (stereo not shown) [Compound 197, 6-chloro-1-(3-hydroxypropyl)-7-(naphthalen-1-ylmethyl)-5-oxo-8-(3-(trifluoromethyl)phenyl)-1,2,3,5-tetrahydroimidazo[1,2-a]pyridine-3-carboxylic acid] | – | 19.3 | > 10 |
| CC1(C(=O)O)CNS(=O)(=O)c2c(-c3cccc(C(F)(F)F)c3)c(Cc3cccc4ccccc34)cc(=O)n21 (stereo not shown) [Compound 042, 4-methyl-8-(naphthalen-1-ylmethyl)-6-oxo-9-(3-(trifluoromethyl)phenyl)-3,4-dihydro-2H,6H-pyrido[1,2-e][1,2,5]thiadiazine-4-carboxylic acid 1,1-dioxide] | 1.3 to 4.5 | 3.3 | – |
| NC(=O)c1c(Cc2cccc3ccccc23)c(-c2cccc(C(F)(F)F)c2)c2n(c1=O)C(C(=O)O)CN(CCCO)S2(=O)=O (stereo not shown) [Compound 184, 7-carbamoyl-2-(3-hydroxypropyl)-8-(naphthalen-1-ylmethyl)-6-oxo-9-(3-(trifluoromethyl)phenyl)-3,4-dihydro-2H,6H-pyrido[1,2-e][1,2,5]thiadiazine-4-carboxylic acid 1,1-dioxide] | – | 2.7 | 1.3 to 4.5 |
| O=C(O)C1CN(Cc2ccccc2)c2c(-c3cccc(C(F)(F)F)c3)c(C(F)(F)c3cccc4ccccc34)c(Br)c(=O)n21 (stereo not shown) [Compound 155, 1-benzyl-6-bromo-7-(difluoro(naphthalen-1-yl)methyl)-5-oxo-8-(3-(trifluoromethyl)phenyl)-1,2,3,5-tetrahydroimidazo[1,2-a]pyridine-3-carboxylic acid] | – | 3 | 1.3 to 4.5 |
| O=C(O)C1CN(CC2CCCC2)c2c(-c3cccc(C(F)(F)F)c3)c(Cc3cccc4ccccc34)c(Cl)c(=O)n21 (stereo not shown) [Compound 167, 6-chloro-1-(cyclopentylmethyl)-7-(naphthalen-1-ylmethyl)-5-oxo-8-(3-(trifluoromethyl)phenyl)-1,2,3,5-tetrahydroimidazo[1,2-a]pyridine-3-carboxylic acid] | – | 0.6 | < 1.3 |
| CN1CC(C(=O)O)n2c(c(-c3cccc(C(F)(F)F)c3)c(Cc3cccc4ccccc34)c(C(=O)N3CCOCC3)c2=O)S1(=O)=O (stereo not shown) [Compound 160, 2-methyl-7-(morpholine-4-carbonyl)-8-(naphthalen-1-ylmethyl)-6-oxo-9-(3-(trifluoromethyl)phenyl)-3,4-dihydro-2H,6H-pyrido[1,2-e][1,2,5] thiadiazine-4-carboxylic acid 1,1-dioxide] | – | 65.8 | > 10 |
| O=C(O)C1CN(C[C@@H](O)CO)S(=O)(=O)c2c(-c3cccc(C(F)(F)F)c3)c(Cc3cccc4ccccc34)cc(=O)n21 (mixture of isomers) [Compound 065b, 2-((R)-2,3-dihydroxypropyl)-8-(naphthalen-1-ylmethyl)-6-oxo-9-(3-(trifluoromethyl)phenyl)-3,4-dihydro-2H,6H-pyrido[1,2-e][1,2,5]thiadiazine-4-carboxylic acid 1,1-dioxide] | > 10 | 18.1 | – |
| O=C(O)C1CN(Cc2ccccc2)c2c(-c3cccc(C(F)(F)F)c3)c(Cc3cccc4ccccc34)c(Cl)c(=O)n21 (stereo not shown) [Compound 004, 1-benzyl-6-chloro-7-(naphthalen-1-ylmethyl)-5-oxo-8-(3-(trifluoromethyl)phenyl)-1,2,3,5-tetrahydroimidazo[1,2-a]pyridine-3-carboxylic acid] | – | 0.7 | < 1.3 |
| O=C(O)C1CN(Cc2cccc3ccccc23)c2c(-c3cccc(C(F)(F)F)c3)c(Cc3cccc4ccccc34)c(Cl)c(=O)n21 (stereo not shown) [Compound 200, 6-chloro-1,7-bis(naphthalen-1-ylmethyl)-5-oxo-8-(3-(trifluoromethyl)phenyl)-1,2,3,5-tetrahydroimidazo[1,2-a]pyridine-3-carboxylic acid] | – | 1.3 | 1.3 to 4.5 |
| CCCN1CC(C(=O)O)n2c(c(-c3cccc(C(F)(F)F)c3)c(C(F)(F)c3cccc4ccccc34)cc2=O)S1(=O)=O (stereo not shown) [Compound 138, 8-(difluoro(naphthalen-1-yl)methyl)-6-oxo-2-propyl-9-(3-(trifluoromethyl)phenyl)-3,4-dihydro-2H,6H-pyrido[1,2-e][1,2,5]thiadiazine-4-carboxylic acid 1,1-dioxide] | – | 2.5 | 1.3 to 4.5 |
| Cn1c(=O)c2c(ncn2CCCCCCCN2CC(C(=O)O)n3c(c(-c4cccc(C(F)(F)F)c4)c(Cc4cccc5ccccc45)cc3=O)S2(=O)=O)n(C)c1=O (stereo not shown) [Compound 036] | 1.3 to 4.5 | 1.6 | – |
| O=C(O)C1CN(CC2CCCCC2)c2c(-c3cccc(C(F)(F)F)c3)c(Cc3cccc4ccccc34)c(Cl)c(=O)n21 (stereo not shown) [Compound 180, 6-chloro-1-(cyclohexylmethyl)-7-(naphthalen-1-ylmethyl)-5-oxo-8-(3-(trifluoromethyl)phenyl)-1,2,3,5-tetrahydroimidazo[1,2-a]pyridine-3-carboxylic acid] | – | 0.5 | < 1.3 |
| O=C(O)C1CN(Cc2ccccc2)c2c(-c3cccc(C(F)(F)F)c3)c(Cc3cccc4ccccc34)c(F)c(=O)n21 (stereo not shown) [Compound 194, 1-benzyl-6-fluoro-7-(naphthalen-1-ylmethyl)-5-oxo-8-(3-(trifluoromethyl)phenyl)-1,2,3,5-tetrahydroimidazo[1,2-a]pyridine-3-carboxylic acid] | – | 1.4 | 1.3 to 4.5 |
| O=C(O)C1CN(Cc2ccc(-c3ccccc3)cc2)c2c(-c3cccc(C(F)(F)F)c3)c(Cc3cccc4ccccc34)c(Cl)c(=O)n21 (stereo not shown) [Compound 202, 1-([1,1′-biphenyl]-4-ylmethyl)-6-chloro-7-(naphthalen-1-ylmethyl)-5-oxo-8-(3-(trifluoromethyl)phenyl)-1,2,3,5-tetrahydroimidazo[1,2-a]pyridine-3-carboxylic acid] | – | 0.8 | < 1.3 |
| O=C(O)C1CN(CCCCCCN2CC(C(=O)O)n3c2c(-c2cccc(C(F)(F)F)c2)c(Cc2cccc4ccccc24)c(Cl)c3=O)c2c(-c3cccc(C(F)(F)F)c3)c(Cc3cccc4ccccc34)c(Cl)c(=O)n21 (stereo not shown) [Compound 193, 1,1′-(hexane-1,6-diyl)bis(6-chloro-7-(naphthalen-1-ylmethyl)-5-oxo-8-(3-(trifluoromethyl)phenyl)-1,2,3,5-tetrahydroimidazo[1,2-a]pyridine-3-carboxylic acid)] | – | 0.6 | < 1.3 |
| NC(=O)c1c(Cc2cccc3ccccc23)c(-c2cccc(C(F)(F)F)c2)c2n(c1=O)C(C(=O)O)CN(C1CCCC1)S2(=O)=O (stereo not shown) [Compound 176, 7-carbamoyl-2-cyclopentyl-8-(naphthalen-1-ylmethyl)-6-oxo-9-(3-(trifluoromethyl)phenyl)-3,4-dihydro-2H,6H-pyrido[1,2-e][1,2,5]thiadiazine-4-carboxylic acid 1,1-dioxide] | – | 1.3 | 1.3 to 4.5 |
| CN(C)C(=O)C1CN(C)S(=O)(=O)c2c(-c3cccc(C(F)(F)F)c3)c(Cc3cccc4ccccc34)cc(=O)n21 (stereo not shown) [Compound 032, N,N-2-trimethyl-8-(naphthalen-1-ylmethyl)-6-oxo-9-(3-(trifluoromethyl)phenyl)-3,4-dihydro-2H,6H-pyrido[1,2-e][1,2,5]thiadiazine-4-carboxamide 1,1-dioxide] | 1.3 to 4.5 | 3.3 | – |
| O=C(O)C1CN(CCC2CCCCC2)c2c(-c3cccc(C(F)(F)F)c3)c(Cc3cccc4ccccc34)c(Cl)c(=O)n21 (stereo not shown) [Compound 207, 6-chloro-1-(2-cyclohexylethyl)-7-(naphthalen-1-ylmethyl)-5-oxo-8-(3-(trifluoromethyl)phenyl)-1,2,3,5-tetrahydroimidazo[1,2-a]pyridine-3-carboxylic acid] | – | 0.7 | < 1.3 |
| CNC(=O)CCCCN1CC(C(=O)O)n2c(c(-c3cccc(C(F)(F)F)c3)c(Cc3cccc4ccccc34)cc2=O)S1(=O)=O (stereo not shown) [Compound 038, 2-(5-(methylamino)-5-oxopentyl)-8-(naphthalen-1-ylmethyl)-6-oxo-9-(3-(trifluoromethyl)phenyl)-3,4-dihydro-2H,6H-pyrido[1,2-e][1,2,5]thiadiazine-4-carboxylic acid 1,1-dioxide] | > 10 | 24 | – |
| O=C(O)C1CN(Cc2cccnc2)c2c(-c3cccc(C(F)(F)F)c3)c(Cc3cccc4ccccc34)c(Cl)c(=O)n21 (stereo not shown) [Compound 169, 6-chloro-7-(naphthalen-1-ylmethyl)-5-oxo-1-(pyridin-3-ylmethyl)-8-(3-(trifluoromethyl)phenyl)-1,2,3,5-tetrahydroimidazo[1,2-a]pyridine-3-carboxylic acid] | – | 3.8 | 1.3 to 4.5 |
| Cn1c(=O)c2c(nc(CCCCCCN3CC(C(=O)O)n4c(c(-c5cccc(C(F)(F)F)c5)c(Cc5cccc6ccccc56)cc4=O)S3(=O)=O)n2C)n(C)c1=O (stereo not shown) [Compound 046, 8-(naphthalen-1-ylmethyl)-6-oxo-9-(3-(trifluoromethyl)phenyl)-2-(6-(1,3,7-trimethyl-2,6-dioxo-2,3,6,7-tetrahydro-1H-purin-8-yl)hexyl)-3,4-dihydro-2H,6H-pyrido[1,2-e][1,2,5]thiadiazine-4-carboxylic acid 1,1-dioxide] | 1.3 to 4.5 | 1.6 | – |
| CCCN1CC(C(=O)O)n2c(c(-c3cccc(C(F)(F)F)c3)c(Cc3cccc4ccccc34)c(O)c2=O)S1(=O)=O (stereo not shown) [Compound 141, 7-hydroxy-8-(naphthalen-1-ylmethyl)-6-oxo-2-propyl-9-(3-(trifluoromethyl)phenyl)-3,4-dihydro-2H,6H-pyrido[1,2-e][1,2,5]thiadiazine-4-carboxylic acid 1,1-dioxide] | – | 2.7 | 1.3 to 4.5 |
